# From ChEMBL document CHEMBL1126404, “A novel approach to the site specific delivery of potential HMG-CoA reductase inhibitors” (Bioorg Med Chem Lett, 1992)
# Tests used:
# [1] = biological target: T1, 3-hydroxy-3-methylglutaryl-coenzyme A reductase (Rattus norvegicus, UniProt P51639); assay: The compound was evaluated for Inhibition of rat hepatic microsomal HMG-CoA reductase.
# T1 sequence (P51639 whole entry): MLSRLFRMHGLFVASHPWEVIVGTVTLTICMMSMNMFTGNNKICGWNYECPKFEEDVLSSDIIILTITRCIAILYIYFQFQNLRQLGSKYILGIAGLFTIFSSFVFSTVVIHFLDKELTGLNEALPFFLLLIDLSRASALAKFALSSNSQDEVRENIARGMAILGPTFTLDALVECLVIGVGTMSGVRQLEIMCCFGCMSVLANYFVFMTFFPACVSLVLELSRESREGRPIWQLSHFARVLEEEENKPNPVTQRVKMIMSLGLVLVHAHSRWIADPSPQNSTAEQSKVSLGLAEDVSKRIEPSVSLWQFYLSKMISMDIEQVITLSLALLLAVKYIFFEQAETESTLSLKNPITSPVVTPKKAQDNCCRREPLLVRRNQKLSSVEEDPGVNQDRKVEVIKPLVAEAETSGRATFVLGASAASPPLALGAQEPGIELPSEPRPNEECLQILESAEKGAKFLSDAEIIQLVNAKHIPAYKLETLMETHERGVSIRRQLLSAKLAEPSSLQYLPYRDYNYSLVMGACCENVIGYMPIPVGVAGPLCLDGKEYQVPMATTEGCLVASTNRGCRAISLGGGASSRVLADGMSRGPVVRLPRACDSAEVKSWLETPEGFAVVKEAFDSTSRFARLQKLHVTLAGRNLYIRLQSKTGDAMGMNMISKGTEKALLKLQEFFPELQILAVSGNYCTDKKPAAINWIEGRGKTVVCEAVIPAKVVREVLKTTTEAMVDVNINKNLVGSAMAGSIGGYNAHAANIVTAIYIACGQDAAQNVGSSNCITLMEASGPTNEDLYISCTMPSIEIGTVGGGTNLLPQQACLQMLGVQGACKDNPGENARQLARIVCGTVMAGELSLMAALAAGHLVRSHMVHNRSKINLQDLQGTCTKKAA
# [2] = biological target: T2, 3-hydroxy-3-methylglutaryl-coenzyme A reductase (Rattus norvegicus) (UniProt P51639); assay: The compound was evaluated for Inhibition of rat hepatic microsomal HMG-CoA reductase at log concentration of ~-3/M
# T2 sequence (whole entry): T1 sequence (P51639 whole entry)
# [3] = biological target: T2, 3-hydroxy-3-methylglutaryl-coenzyme A reductase (Rattus norvegicus); assay: The compound was evaluated for Inhibition of rat hepatic microsomal HMG-CoA reductase at log concentration of ~-8/M
# [4] = biological target: T2, 3-hydroxy-3-methylglutaryl-coenzyme A reductase (Rattus norvegicus); assay: The compound was evaluated for Inhibition of rat hepatic microsomal HMG-CoA reductase at log concentration of ~-6/M
# [5] = biological target: T2, 3-hydroxy-3-methylglutaryl-coenzyme A reductase (Rattus norvegicus); assay: The compound was evaluated for Inhibition of rat hepatic microsomal HMG-CoA reductase at log concentration of ~-5/M
# [6] = biological target: T2, 3-hydroxy-3-methylglutaryl-coenzyme A reductase (Rattus norvegicus); assay: The compound was evaluated for Inhibition of rat hepatic microsomal HMG-CoA reductase at log concentration of ~-4/M
# [7] = biological target: T2, 3-hydroxy-3-methylglutaryl-coenzyme A reductase (Rattus norvegicus); assay: The compound was evaluated for Inhibition of rat hepatic microsomal HMG-CoA reductase at log concentration of ~-6/M.
# [8] = biological target: T2, 3-hydroxy-3-methylglutaryl-coenzyme A reductase (Rattus norvegicus)
# Description: The compound was evaluated for Inhibition of rat hepatic microsomal HMG-CoA reductase at log concentration of ~-10/M.
# [9] = biological target: T2, 3-hydroxy-3-methylglutaryl-coenzyme A reductase (Rattus norvegicus); remark: listed apart in the source
# Description: The compound was evaluated for Inhibition of rat hepatic microsomal HMG-CoA reductase at log concentration of ~-9/M.
# [10] = biological target: T2, 3-hydroxy-3-methylglutaryl-coenzyme A reductase (Rattus norvegicus); remark: listed apart in the source
# Description: The compound was evaluated for Inhibition of rat hepatic microsomal HMG-CoA reductase at log concentration of ~-11/M
# [11] = biological target: T2, 3-hydroxy-3-methylglutaryl-coenzyme A reductase (Rattus norvegicus); assay: The compound was evaluated for Inhibition of rat hepatic microsomal HMG-CoA reductase at log concentration of ~-7/M.
# [12] = biological target: T2, 3-hydroxy-3-methylglutaryl-coenzyme A reductase (Rattus norvegicus); assay: The compound was evaluated for Inhibition of rat hepatic microsomal HMG-CoA reductase at log concentration of ~-4/M.
# [13] = biological target: T2, 3-hydroxy-3-methylglutaryl-coenzyme A reductase (Rattus norvegicus); assay: The compound was evaluated for Inhibition of rat hepatic microsomal HMG-CoA reductase at log concentration of ~-5/M.
# [14] = biological target: T2, 3-hydroxy-3-methylglutaryl-coenzyme A reductase (Rattus norvegicus); assay: The compound was evaluated for Inhibition of rat hepatic microsomal HMG-CoA reductase at log concentration of ~-3/M.
# [15] = biological target: T2, 3-hydroxy-3-methylglutaryl-coenzyme A reductase (Rattus norvegicus); assay: The compound was evaluated for Inhibition of rat hepatic microsomal HMG-CoA reductase at log concentration of ~-8/M.
IC50 [1],Activity (nM min-1 mg-1) [2],Activity (nM min-1 mg-1) [3],Activity (nM min-1 mg-1) [4],Activity (nM min-1 mg-1) [5],Activity (nM min-1 mg-1) [6],Activity (nM min-1 mg-1) [7],Activity (nM min-1 mg-1) [8],Activity (nM min-1 mg-1) [9],Activity (nM min-1 mg-1) [10],Activity (nM min-1 mg-1) [11],Activity (nM min-1 mg-1) [12],Activity (nM min-1 mg-1) [13],Activity (nM min-1 mg-1) [14],Activity (nM min-1 mg-1) [15],Structure (SMILES)
39.2 µM,0,300,280,240,80,,,,,,,,,,CC(=O)O[C@@H]1CC[C@@]2(C)[C@@H](C1)C[C@@H](OC(C)=O)[C@@H]1[C@@H]2C[C@H](OC(C)=O)[C@]2(C)[C@@H]([C@H](C)CC(O)CC(O)CC(=O)O)CC[C@@H]12 (some centres not stated)
,,,,,,0,280,240,280,,,,,,CC[C@@H](C)C(=O)O[C@H]1C[C@@H](C)C=C2C=C[C@H](C)[C@H](CC[C@@H](O)C[C@@H](O)CC(=O)O)[C@H]21
12.3 µM,,280,,,,150,,,,270,0,30,,,C[C@H](CC(O)CC(O)CC(=O)O)[C@H]1CC[C@H]2[C@@H]3[C@H](O)C[C@@H]4C[C@H](O)CC[C@]4(C)[C@H]3C[C@H](OC(=O)C(C)(C)C)[C@]12C (some centres not stated)
,,,,,,300,,,,290,290,290,250,280,COC(=O)CC(=O)CC(O)C[C@@H](C)[C@H]1CC[C@H]2[C@@H]3[C@H](OC(C)=O)C[C@@H]4C[C@H](OC(C)=O)CC[C@]4(C)[C@H]3C[C@H](OC(C)=O)[C@]12C (some centres not stated)
